In US20060040919A1, “Bronchorelaxing compounds” (priority 2004, published 2006):

Legend:
[1] = test system: human bronchus preparation; experiment: Bronchorelaxation test: LTD4-induced contraction of human bronchus preparation; conditions: 10 μM capsazepine, 1 h exposure, then 10 nM LTD4; compared with control LTD4 contraction; exemplary test of FIG. 7
Method: Dissection and mounting of lung tissue preparations. Lung tissue was obtained from patients undergoing lobectomia or pulmectomia due to lung carcinoma. The tissue was placed in a dissection chamber continuously perfused with 10 ml min^−1 of a physiological saline solution (PSS) at room temperature. An airway was identified in the cut part of the lobe, and a bronchus of 10-20 mm length and 1-2 mm diameter was obtained. The bronchus was cut into rings of a width of about 2-3 mm. Each bronchial ring was cleaved to obtain an about rectangular oblong preparation, one end of which was tied to a small steel hook connected to a force transducer, while the other end of the preparation was attached to a fixed hook. This is followed by a period of adjustment, as described below. The preparation was mounted in an atmosphere containing […] and 6% of CO2.
Experimental chamber. The experimental chamber has a volume of 5 ml. It is perfused with PSS at a rate of 3 ml min^−1. Two preparations are mounted in the chamber, and measurements on them are performed in parallel. For mechanical tensioning each force transducer (AME 801, SensoNor A/S, Horten, Norway) is connected to a micrometer screw. The substances to be tested, the reference substance (capsazepine), and transmitter (LTD4) are injected upstream of the preparation(s).
Materials. […]

| melting point [°C] | Compound | remaining contraction (test force) relative to that caused by the control force [1] |
| --- | --- | --- |
|  | Oc1cc2c(cc1O)CN(C(=S)NCCc1ccc(Cl)cc1)CCC2 [capsazepine] | about 55% |
| 83 to 86 | Oc1c(O)c(Cl)c2c(c1Cl)CCN(C(=S)NCCc1ccc(Cl)cc1)C2 [Res-4-95, 5,8-Dichloro-N-[2-(4-chlorophenyl)ethyl]-6,7-dihydroxy-3,4-dihydroisoquinoline-2(1H)-carbothioamide] |  |
